Source: patent US20030232999A1, “POLYMETHINE COMPOUND AND NEAR-INFRARED ABSORBING MATERIAL COMPRISING SAME” (priority 2002, published 2003)

Experiment: Solubility in solvents (stated in words)
Assay type: physicochemical
Details: statement in words

## COCCN1/C(=C\C=C2/CCCC(/C=C/C3=[N+](CCOC)c4ccccc4C3(C)C)=C2Cl)C(C)(C)c2ccccc21 [compound A]
  solubility in solvents: low

## CCN1/C(=C\C=C2/CCCC(/C=C/C3=[N+](CC)c4ccc(OC)cc4C3(C)C)=C2Cl)C(C)(C)c2cc(OC)ccc21.[I-] [compound B]
  solubility in solvents: low
